Measurements reported in ChEMBL document CHEMBL5143545, “Indolylarylsulfones bearing phenylboronic acid and phenylboronate ester functionalities as potent HIV‑1 non-nucleoside reverse transcriptase inhibitors” (Bioorg Med Chem, 2022).
Values after ≈ are worked out from the molar mass of the structure shown.

Tests used:
[1] = test system: Human immunodeficiency virus 1; format: functional, organism-based; details: Human immunodeficiency virus 1, MT4
[2] = test system: Human immunodeficiency virus 1; format: functional, organism-based; details: Human immunodeficiency virus 1, MT4; remark: listed apart in the source
[3] = test system: Human immunodeficiency virus 1; assay: Antiviral activity against HIV1 with RT E138K mutant infected in human MT4 cells assessed as protection against viral-induced cytopathogenecity by MTT assay; format: functional, organism-based; details: Human immunodeficiency virus 1, MT4
in vitro = details: human, MT4 cells, mock-infected (CC50) and HIV1 3B infected (EC50)
Description: Selectivity index, ratio of CC50 for toxicity in mock-infected human MT4 cells assessed as reduction in cell viability by MTT assay to EC50 for antiviral activity against HIV1 3B infected in human MT4 cells assessed as protection against viral-induced cytopathogenecity by MTT assay

[4] = test system: Human immunodeficiency virus 1; format: functional, organism-based; details: Human immunodeficiency virus 1, MT4; remark: listed apart in the source
[5] = Toxicity in mock-infected human MT4 cells assessed as reduction in cell viability by MTT assay; format: cell-based
[6] = test system: Human immunodeficiency virus 1; assay: microbe, parasite or virus in culture; details: Human immunodeficiency virus 1, 3B, MT4
Description: Antiviral activity against HIV1 3B infected in human MT4 cells assessed as protection against viral-induced cytopathogenecity by MTT assay

[7] = test system: Human immunodeficiency virus 1; assay: Antiviral activity against HIV1 with RT K103N mutant infected in human MT4 cells assessed as protection against viral-induced cytopathogenecity by MTT assay; format: functional, organism-based; details: Human immunodeficiency virus 1, MT4
[8] = test system: Human immunodeficiency virus 1; assay: Antiviral activity against HIV1 with RT L100I mutant infected in human MT4 cells assessed as protection against viral-induced cytopathogenecity by MTT assay; format: functional, organism-based; details: Human immunodeficiency virus 1, MT4
[9] = test system: Human immunodeficiency virus 1; assay: Antiviral activity against HIV1 with RT RES056 mutant infected in human MT4 cells assessed as protection against viral-induced cytopathogenecity by MTT assay; format: functional, organism-based; details: Human immunodeficiency virus 1, MT4
[10] = Solubility in water at pH 7; format: physicochemical
[11] = Solubility in water at pH 2; format: physicochemical
[12] = Solubility in water at pH 7.4; format: physicochemical
[13] = target: Human immunodeficiency virus type 1 reverse transcriptase (Human immunodeficiency virus 1, UniProt Q72547); assay: Inhibition of HIV1 reverse transcriptase assessed as inhibition of biotin-dUTP incorporation

| SMILES | EC50 [1] | EC50 [2] | EC50 [3] | selectivity ratio (in vitro) | EC50 [4] | CC50 [5] | EC50 [6] | EC50 [7] | EC50 [8] | EC50 [9] | solubility [10] | solubility [11] | solubility [12] | IC50 [13] |
| --- | --- | --- | --- | --- | --- | --- | --- | --- | --- | --- | --- | --- | --- | --- |
| Cc1cc(C)cc(S(=O)(=O)c2c(C(=O)NCCCNC(=O)c3ccc(B(O)O)cc3)[nH]c3ccc(Cl)cc23)c1 | 2.23 µM | 0.118 µM | 0.0342 µM | 2240 | 0.19 µM | 24.7 µM | 0.0111 µM | 0.033 µM | 0.021 µM | 4.91 µM |  |  |  |  |
| Cc1cc(C)cc(S(=O)(=O)c2c(C(=O)Nc3ccc(B(O)O)cc3)[nH]c3ccc(Cl)cc23)c1 | > 1.62 µM | 0.0795 µM | 0.0398 µM | 712 | 0.215 µM | 8.55 µM | 0.012 µM | 0.041 µM | 0.037 µM | > 856 µM |  |  |  |  |
| Cc1cc(C)cc(S(=O)(=O)c2c(C(=O)NCCCNC(=O)c3cccc(B(O)O)c3)[nH]c3ccc(Cl)cc23)c1 | 1.82 µM | 0.22 µM | 0.0844 µM | 684 | 0.27 µM | 24.2 µM | 0.0354 µM | 0.13 µM | 0.11 µM | 5.4 µM |  |  |  |  |
| Cc1cc(C)cc(S(=O)(=O)c2c(C(=O)NC3CCN(Cc4ccc(B(O)O)cc4)CC3)[nH]c3ccc(Cl)cc23)c1 | > 19.3 µM | 1.31 µM | 0.646 µM | 615 | 1.07 µM | 19.3 µM | 0.0314 µM | 0.31 µM | 0.11 µM | > 19.3 µM |  |  |  |  |
| Cc1cc(C)cc(S(=O)(=O)c2c(C(=O)NCc3ccc(B4OC(C)(C)C(C)(C)O4)cc3)[nH]c3ccc(Cl)cc23)c1 | 2.59 µM | 0.091 µM | 0.045 µM | 3550 | 0.0699 µM | 23.9 µM | 0.0067 µM | 0.035 µM | 0.014 µM | 4.04 µM | 35.8 µg/mL (≈ 61.8 µM) | 73 µg/mL (≈ 126 µM) | 37.7 µg/mL (≈ 65.1 µM) | 0.119 µM |
| Cc1cc(C)cc(S(=O)(=O)c2c(C(=O)NCc3cccc(B(O)O)c3)[nH]c3ccc(Cl)cc23)c1 | 0.89 µM | 0.021 µM | 0.0503 µM | 3310 | 0.06 µM | 28 µM | 0.0085 µM | 0.0092 µM | 0.0073 µM | 1.51 µM | 70 µg/mL (≈ 141 µM) | 64 µg/mL (≈ 129 µM) | 94.5 µg/mL (≈ 190 µM) | 0.123 µM |
| Cc1cc(C)cc(S(=O)(=O)c2c(C(=O)NCCNC(=O)c3cccc(B(O)O)c3)[nH]c3ccc(Cl)cc23)c1 | 8.1 µM | 0.98 µM | 0.243 µM | 517 | 1.34 µM | 21.1 µM | 0.0408 µM | 0.57 µM | 0.26 µM | > 21.1 µM |  |  |  |  |
| Cc1cc(C)cc(S(=O)(=O)c2c(C(=O)Nc3ccc4c(c3)B(O)OC4)[nH]c3ccc(Cl)cc23)c1 | > 1.96 µM | 0.19 µM | 0.0649 µM | 457 | 0.47 µM | 8.42 µM | 0.0184 µM | 0.11 µM | 0.096 µM | > 8.41 µM |  |  |  |  |
| Cc1cc(C)cc(S(=O)(=O)c2c(C(=O)NCCNC(=O)c3ccc(B(O)O)cc3)[nH]c3ccc(Cl)cc23)c1 | 6.76 µM | 0.7 µM | 0.162 µM | 1230 | 0.91 µM | 24.4 µM | 0.0198 µM | 0.26 µM | 0.23 µM | > 24.3 µM |  |  |  |  |
| Cc1cc(C)cc(S(=O)(=O)c2c(C(=O)Nc3cccc(B(O)O)c3)[nH]c3ccc(Cl)cc23)c1 | > 5.3 µM | 0.2 µM | 0.0676 µM | 282 | 0.85 µM | 5.31 µM | 0.0189 µM | 0.1 µM | 0.0875 µM | > 5.3 µM |  |  |  |  |
| Cc1cc(C)cc(S(=O)(=O)c2c(C(=O)NC3CCN(Cc4cccc(B(O)O)c4)CC3)[nH]c3ccc(Cl)cc23)c1 | > 6.43 µM | > 1.19 µM | 0.717 µM | 151 | 1.19 µM | 6.43 µM | 0.0426 µM | 0.51 µM | 0.28 µM | > 6.43 µM |  |  |  |  |
| Cc1cc(C)cc(S(=O)(=O)c2c(C(=O)NCc3ccc(B(O)O)cc3)[nH]c3ccc(Cl)cc23)c1 | 3.86 µM | 0.115 µM | 0.0537 µM | 3140 | 0.12 µM | 27.7 µM | 0.0088 µM | 0.032 µM | 0.0094 µM | 4.64 µM |  |  |  |  |
| Cc1cc(C)cc(S(=O)(=O)c2c(C(N)=O)[nH]c3ccc(Cl)cc23)c1 | 1.17 µM | 0.08 µM | 0.01 µM | 2570 | 0.03 µM | 7.08 µM | 0.0028 µM | 0.02 µM | 0.01 µM | > 7.08 µM | 58.3 µg/mL (≈ 161 µM) | 71.2 µg/mL (≈ 196 µM) | 29 µg/mL (≈ 79.9 µM) | 0.0048 µM |
| O=C1Nc2ccc(Cl)cc2[C@@](C#CC2CC2)(C(F)(F)F)O1 [EFAVIRENZ] | 0.21 µM |  | 0.0066 µM |  | 0.0063 µM | > 6.34 µM |  |  |  | 0.33 µM |  |  |  |  |
| Cc1cc(C#N)cc(C)c1Oc1nc(Nc2ccc(C#N)cc2)nc(N)c1Br [ETRAVIRINE] |  | 0.02 µM | 0.019 µM |  |  | > 4.59 µM | 0.0029 µM |  | 0.0076 µM | 0.066 µM | < 2 µg/mL | < 3 µg/mL | < 1 µg/mL |  |
| Nc1ccn([C@@H]2CS[C@H](CO)O2)c(=O)n1 [LAMIVUDINE] | 4.56 µM | 2.17 µM | 8.27 µM | > 309 | 3.4 µM | > 87.2 µM | 5.23 µM | 2.79 µM | 1.15 µM | 5.06 µM |  |  |  |  |
| Cc1ccnc2c1NC(=O)c1cccnc1N2C1CC1 [NEVIRAPINE] | > 1500 µM | > 1500 µM |  |  | 11 µM | > 15 µM | 0.16 µM |  |  | > 1500 µM |  |  |  |  |
| Cc1cn([C@H]2C[C@H](N=[N+]=[N-])[C@@H](CO)O2)c(=O)[nH]c1=O [ZIDOVUDINE] | 0.012 µM | 0.0097 µM | 0.0347 µM | > 352 | 0.015 µM | > 7.48 µM | 0.0212 µM | 0.022 µM | 0.0093 µM |  |  |  |  |  |
